In patent US20260297542A1, “HERBICIDE RESISTANT PLANTS” (SYNGENTA CROP PROTECTION AG, priority 2023, published 2026):
Positions count from the first letter of the chain named.

Experiments:
Assay in all cases: E. coli hemG growth inhibition by herbicide, AtPPO1 variant
Assay type in all cases: cell-based
Conditions in all cases: read-out: percentage growth inhibition
AtPPO1 Y361T = molecular target: T1, AtPPO1 Y361T (Arabidopsis thaliana, UniProt P55826, Y361T)
T1 construct: expressed in transfected cells; host or cells: E. coli BL21(DE3) hemG (pET24a, T7 promoter)
T1 sequence (P55826 35-537 Y361T): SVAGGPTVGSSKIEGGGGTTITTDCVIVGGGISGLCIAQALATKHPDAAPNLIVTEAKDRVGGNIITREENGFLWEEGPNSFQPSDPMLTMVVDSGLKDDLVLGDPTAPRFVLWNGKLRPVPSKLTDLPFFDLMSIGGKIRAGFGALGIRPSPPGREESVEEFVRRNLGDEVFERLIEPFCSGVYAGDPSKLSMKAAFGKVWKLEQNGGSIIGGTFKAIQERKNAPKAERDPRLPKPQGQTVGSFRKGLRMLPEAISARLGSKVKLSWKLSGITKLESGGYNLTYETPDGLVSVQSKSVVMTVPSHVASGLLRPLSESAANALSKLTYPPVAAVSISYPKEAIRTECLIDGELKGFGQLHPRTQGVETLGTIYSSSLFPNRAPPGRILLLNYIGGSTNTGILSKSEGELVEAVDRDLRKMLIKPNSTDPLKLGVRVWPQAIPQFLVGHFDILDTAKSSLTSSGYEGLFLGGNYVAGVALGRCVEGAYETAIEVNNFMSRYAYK
Outline: (§1)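 AtPPO1 variants from a site-saturation library, codon-optimised and T7-driven in pET24a, were expressed in E. coli BL21(DE3) lacking hemG (hemG replaced by CmR). Growth in Terrific broth with 0.1 mM IPTG plus 6.25 ppm herbicide 0 or E, 0.78 ppm herbicide B, or DMSO was read as OD600 after 24 h at 37° C; inhibition was calculated against the DMSO culture.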

AtPPO1 V447C = molecular target: T2, AtPPO1 V447C (Arabidopsis thaliana, UniProt P55826, V447C)
T2 construct: expressed in transfected cells; host or cells: E. coli BL21(DE3) hemG (pET24a, T7 promoter)
T2 sequence (P55826 35-537 V447C): T1 sequence (P55826 35-537 Y361T) with T327Y, V413C
Outline: as §1

AtPPO1 Y362C = molecular target: T3, AtPPO1 Y362C (Arabidopsis thaliana, UniProt P55826, Y362C)
T3 construct: expressed in transfected cells; host or cells: E. coli BL21(DE3) hemG, pET24a plasmid
T3 sequence (P55826 35-537 Y362C): T1 sequence (P55826 35-537 Y361T) with T327Y, Y328C
Outline: as §1

AtPPO1 G481D = molecular target: T4, AtPPO1 G481D (Arabidopsis thaliana, UniProt P55826, G481D)
T4 construct: expressed in transfected cells; host or cells: E. coli BL21(DE3) hemG, pET24a plasmid
T4 sequence (P55826 35-537 G481D): T1 sequence (P55826 35-537 Y361T) with T327Y, G447D
Outline: as §1

Structure (SMILES) | inhibition at 0.78 ppm (AtPPO1 Y361T) [%] | inhibition at 0.78 ppm (AtPPO1 V447C) [%] | inhibition at 0.78 ppm (AtPPO1 Y362C) [%] | inhibition at 0.78 ppm (AtPPO1 G481D) [%] | inhibition at 6.25 ppm (AtPPO1 Y361T) [%] | inhibition at 6.25 ppm (AtPPO1 V447C) [%] | inhibition at 6.25 ppm (AtPPO1 Y362C) [%] | inhibition at 6.25 ppm (AtPPO1 G481D) [%]
C#CCN1C(=O)C(F)(F)Oc2cc(F)c(-n3c(=O)n(C)c(=S)n(C)c3=O)cc21 [Herbicide B, trifludimoxazin] | 37 | 34 | 37 | 40 |  |  |  | 
CCOC(=O)[C@]1(C)CC(c2cc(-n3c(=O)n(C)c(=S)n(C)c3=O)c(F)cc2Cl)=NO1 [Herbicide D, ethyl (5S)-3-[2-chloro-5-(3,5-dimethyl-2,6-dioxo-4-thioxo-1,3,5-triazinan-1-yl)-4-fluoro-phenyl]-5-methyl-4H-isoxazole-5-carboxylate] |  |  |  |  | 44 | 32 | 43 | 20
CC(C)N(C)S(=O)(=O)NC(=O)c1cc(-n2c(=O)cc(C(F)(F)F)n(C)c2=O)c(F)cc1Cl [Herbicide E, saflufenacil] |  |  |  |  | 37 | 53 | 58 | 16
